What was measured:
GTPase KRas [G12C] = GTPase KRas [G12C] (Homo sapiens, UniProt P01116, G12C)
GTPase KRas [G13C] = GTPase KRas [G13C] (Homo sapiens, UniProt P01116, G13C)
GTPase KRas [G12V] = GTPase KRas [G12V] (Homo sapiens, UniProt P01116, G12V)
GTPase NRas [G12C] = GTPase NRas [G12C] (Homo sapiens, UniProt P01111, G12C)
GTPase KRas = GTPase KRas (Homo sapiens, UniProt P01116)
GTPase KRas [G12D] = GTPase KRas [G12D] (Homo sapiens, UniProt P01116, G12D)
kras g13d = kras g13d (Homo sapiens, UniProt P01116, G13D)
GTPase NRas [Q61K] = GTPase NRas [Q61K] (Homo sapiens, UniProt P01111, Q61K)
GTPase KRas [Q61H] = GTPase KRas [Q61H] (Homo sapiens, UniProt P01116, Q61H)
GTPase NRas [Q61R] = GTPase NRas [Q61R] (Homo sapiens, UniProt P01111, Q61R)
GTPase NRas = GTPase NRas (Homo sapiens, UniProt P01111)
Sequence of GTPase NRas (P01111 whole entry): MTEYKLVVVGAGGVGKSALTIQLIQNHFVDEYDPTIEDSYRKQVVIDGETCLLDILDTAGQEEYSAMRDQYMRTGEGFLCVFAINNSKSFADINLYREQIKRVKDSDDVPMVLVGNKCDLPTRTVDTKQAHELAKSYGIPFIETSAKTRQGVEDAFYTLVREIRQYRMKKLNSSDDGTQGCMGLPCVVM

Sequence of GTPase KRas [G12C] (P01116 whole entry G12C): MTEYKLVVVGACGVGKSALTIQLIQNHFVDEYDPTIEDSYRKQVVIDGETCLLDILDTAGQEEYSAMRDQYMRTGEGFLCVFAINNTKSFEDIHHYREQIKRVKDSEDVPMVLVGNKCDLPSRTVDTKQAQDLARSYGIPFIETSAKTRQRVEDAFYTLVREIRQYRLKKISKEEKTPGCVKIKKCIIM
Sequence of GTPase KRas [G13C] (P01116 whole entry G13C): as the sequence (P01116 whole entry G12C) above, with C12G, G13C counted along it
Sequence of GTPase KRas [G12V] (P01116 whole entry G12V): as the sequence (P01116 whole entry G12C) above, with C12V counted along it
Sequence of GTPase KRas (P01116 whole entry): as the sequence (P01116 whole entry G12C) above, with C12G counted along it
Sequence of GTPase NRas [G12C] (P01111 whole entry G12C): as the sequence (P01111 whole entry) above, with G12C counted along it
Sequence of GTPase KRas [G12D] (P01116 whole entry G12D): as the sequence (P01116 whole entry G12C) above, with C12D counted along it
Sequence of kras g13d (P01116 whole entry G13D): as the sequence (P01116 whole entry G12C) above, with C12G, G13D counted along it
Sequence of GTPase KRas [Q61H] (P01116 whole entry Q61H): as the sequence (P01116 whole entry G12C) above, with C12G, Q61H counted along it
Sequence of GTPase NRas [Q61R] (P01111 whole entry Q61R): as the sequence (P01111 whole entry) above, with Q61R counted along it
Sequence of GTPase NRas [Q61K] (P01111 whole entry Q61K): as the sequence (P01111 whole entry) above, with Q61K counted along it

SMILES | IC50 (GTPase KRas [G12C]) [nM] | IC50 (GTPase KRas [G13C]) [nM] | IC50 (GTPase KRas [G12V]) | IC50 (GTPase NRas [G12C]) | IC50 (GTPase KRas) | IC50 (GTPase KRas [G12D]) | IC50 (kras g13d) | IC50 (GTPase NRas [Q61K]) | IC50 (GTPase KRas [Q61H]) | IC50 (GTPase NRas [Q61R]) | IC50 (GTPase NRas)
CCN1C[C@@H](C(=O)N(C)[C@H](C(=O)N[C@H]2Cc3cc(O)cc(c3)-c3ccc4c(c3)c(c(-c3cnccc3COC)n4CC)CC(C)(C)COC(=O)[C@@H]3CCCN(N3)C2=O)C(C)C)CC1=O [US20250195521, Example A16] | 55 | 550 | in the range around 550 nM | in the range around 550 nM | in the range around 550 nM | in the range around 5500 nM | in the range around 550 nM | – | – | – | –
CCn1c(-c2cnccc2COC)c2c3cc(ccc31)-c1cc(O)cc(c1)C[C@H](NC(=O)[C@H](C(C)C)N(C)C(=O)[C@@H]1NC[C@@H]3C[C@@H]31)C(=O)N1CCC[C@H](N1)C(=O)OCC(C)(C)C2 [US20250195521, Example A78] | 550 | 55 | in the range around 550 nM | in the range around 550 nM | in the range around 550 nM | in the range around 550 nM | in the range around 550 nM | – | – | – | –
CCn1c(-c2cccnc2[C@H](C)OC)c2c3cc(ccc31)-c1cc(O)cc(c1)C[C@H](NC(=O)[C@H](C(C)C)N(C)C(=O)[C@H]1CCN(C(=O)OC(C)C)C1)C(=O)N1CCC[C@H](N1)C(=O)OCC(C)(C)C2 [US20250195521, Example A117] | – | – | > 10000 nM | – | – | – | – | – | – | – | –
CCn1c(-c2cccnc2[C@H](C)OC)c2c3cc(ccc31)-c1csc(n1)C[C@H](NC(=O)[C@H](C(C)C)N(C)C(=O)OC)C(=O)N1CCC[C@H](N1)C(=O)OCC(C)(C)C2 [US20250195521, Example A138] | 550 | 550 | in the range around 550 nM | in the range around 550 nM | in the range around 550 nM | in the range around 5500 nM | in the range around 5500 nM | in the range around 550 nM | in the range around 550 nM | in the range around 550 nM | in the range around 550 nM
CCn1c(-c2cccnc2[C@H](C)OC)c2c3cc(ccc31)-c1cc(O)cc(c1)C[C@H](NC(=O)C1[C@H]3COC[C@@H]13)C(=O)N1CCC[C@H](N1)C(=O)OCC(C)(C)C2 (stereo not given in full) [US20250195521, Example A253] | – | – | – | – | – | > 10000 nM | – | – | – | – | –
CCn1c(-c2cccnc2[C@H](C)OC)c2c3cc(ccc31)-c1csc(n1)C[C@H](NC(=O)[C@H](C(C)C)N(C)C(=O)N1CCC[C@@H](N(C)C)CC1)C(=O)N1CCC[C@H](N1)C(=O)OCC(C)(C)C2 [US20250195521, Example A494] | 55 | – | – | in the range around 55 nM | in the range around 55 nM | in the range around 55 nM | – | in the range around 55 nM | in the range around 55 nM | in the range around 55 nM | in the range around 55 nM
